# Results reported in US11510886B2, “Metformin amino acid compounds and methods of using the same” (Laboratorios Silancs S.A. DE C.V., priority 2016, dated 2022).
# Biological target: T1, GPBP (Homo sapiens, UniProt Q9Y5P4)
# T1 sequence (Q9Y5P4 1-624): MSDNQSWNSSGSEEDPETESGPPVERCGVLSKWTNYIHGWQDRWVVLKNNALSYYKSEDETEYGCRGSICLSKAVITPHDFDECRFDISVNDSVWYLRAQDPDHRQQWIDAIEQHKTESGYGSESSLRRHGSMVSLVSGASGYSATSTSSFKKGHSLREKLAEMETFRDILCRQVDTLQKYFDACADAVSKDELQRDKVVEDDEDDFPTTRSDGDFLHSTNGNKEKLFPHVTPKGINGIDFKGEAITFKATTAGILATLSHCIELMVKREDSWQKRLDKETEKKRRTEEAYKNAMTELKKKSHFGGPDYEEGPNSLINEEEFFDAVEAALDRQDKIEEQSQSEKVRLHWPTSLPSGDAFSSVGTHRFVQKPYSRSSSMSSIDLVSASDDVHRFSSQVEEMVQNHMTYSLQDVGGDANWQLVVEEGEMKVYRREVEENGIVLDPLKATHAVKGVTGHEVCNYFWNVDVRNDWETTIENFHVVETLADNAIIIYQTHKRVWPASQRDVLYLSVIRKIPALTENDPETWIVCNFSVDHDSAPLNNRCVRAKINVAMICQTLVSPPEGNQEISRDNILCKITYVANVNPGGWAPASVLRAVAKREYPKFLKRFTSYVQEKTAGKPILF
# Assay type: binding
# Description: GPBP·SLN10n (Equation 2) where
# The equation above was represented with the F data obtained at 26° C.
substance,measurement,value
metformin lysinate,GPBP fluorescence emission at 370 nm (F370),steady reduction (extinction)
same,Ksv (Stern-Volmer constant),108800 M⁻¹
same,n (number of SLN10 molecules bound to GPBP),0.7
